The results in this text go back to patent US9427433B2, “Methods and compositions for enhancing fertility and/or inhibiting pregnancy failure and restoring glucose tolerance” (Queen's University at Kingston, priority 2011, dated 2016).

Assay type in all cases: in vivo, mouse
Experiment [1] relates to uteri of diabetic NOD mice. Briefly: Uterodome maturation (scanning electron microscopy) and uterine LIF Western blot. On the procedure:
Using ice-cold sterile glass Dounce-tissue homogenizer, uterine samples collected from virgin and pregnant normoglycemic and diabetic NOD mice were homogenized in 3 volumes of the provided 1× homogenization buffer [Cytosolic and Nuclear Extraction Buffer Kit (Biovision Inc., CA, USA)] as per the manufacturer's instructions. Homogenized samples were centrifuged at 4° C. for 5 minutes at 16,000 g. Supernatants, referred to as cytosolic extracts, were immediately transferred into a clean pre-chilled tube kept on ice. Extraction of nuclear proteins from the remaining insoluble (pellet) fractions followed using ice-cold Nuclear Extraction Buffer Mix according to the supplier's instructions. Protein content of the extracted cytosolic and nuclear fractions was determined by Bradford assay. Extracted protein samples were aliquoted and stored at −80° C. for further analyses.
Mouse uterine cytosolic and nuclear proteins were resolved on 6 or 8% (w/v) Tris-SDS denaturing polyacrylamide gels in 1× sample loading buffer (150 mM sodium chloride, 1.0% Triton X-100 and 50 mM Tris, pH 8.0). Urea (8M) was added to the Tris-based SDS-PAGE for the detection of MUC1. […] Background-corrected intensities of Western blot protein bands on scanned films were processed using Image J. Data were expressed as means±SEM. GAPDH (detected as a band of approximately 37 kDa) was used as an internal loading control. […]
In general terms: Immunoblotting shows a protein as a band on a membrane.

The subject of a further experiment is NOD, NZO and DIO mice. Briefly: Still births, malformations and live births of near-term pups. From the text: FIGS. 13A through 13G show results of short term administration of tacrolimus reducing the rates of stillbirths and malformations associated with the diabetic gestation and restoration of normal term pregnancy with high rate of live births in the treated diabetic and obese mice. Numbers and external morphological features of near term (Gd.16.5) pups delivered to tacrolimus-treated versus those delivered to vehicle-treated diabetic and their normoglycemic control mice are depicted in FIGS. 13A through 13C, respectively. Fetal viability rates and external features of pups delivered to diabetic and obese mice with those of the tacrolimus-treated obese and type 2 diabetic mice are depicted in FIGS. 13D and 13E, respectively. Graph bars of FIGS. 13F and 13G display figure statistics.
The successful use of tacrolimus in reducing still birth rates and preventing fetal malformations in the diabetic and obese mice is supportive of the etiological role for IFN-γ in the pathophysiology of fetal loss in diabetes and obese subjects. FIG. 13 provides a comparison between the external morphological features and liver versus still birth rates in near-term (Gd.16.5) pups delivered to tacrolimus-treated NOD (FIG. 13A) versus vehicle-treated diabetic NOD (FIG. 13B) and their normoglycemic control mice (FIG. 13C). […]

The subject of experiment [2] is 60% high fat fed NZO and DIO mice. Kind of experiment: Glucose tolerance test after tacrolimus. Particulars: all treated type 2 diabetic and obese mice; FIG. 16B. As for the experimental part:
Twenty NZO and DIO/B6 female mice were maintained on a high fat diet consisted of 60% kcal fat, 20% kcal protein and 20% kcal carbohydrate, with a total energy mass of 5.24 kcal/gm (D12492, Research Diets Inc.; […] Tacrolimus (Prograf (5 mg/ml), Astellas) was administered subcutaneously in a dose of 0.1 mg/kg q2d in 0.2 ml saline for three weeks to the obese and glucose intolerant NZO and DIO mice starting at the age of 10 weeks after which animals were mated to males of the same strain and pregnancy was dated from the morning of the positive detection of vaginal (copulation) plug. See FIG. 2. […] Briefly, basal glucose levels were measured for conscious mice individually caged in 1000 cc plastic mouse caging using a one-touch ultra glucose strips and meter (Acqui-check Aviva, Roche, Montreal, Canada) and approximately 30 microliters of blood obtained via tail venipuncture prior to fasting for six hours in cages equipped with hardwood bedding. Fasting blood glucose was recorded at the end of the six hours fasting period. […] Then after, blood glucose was recorded at 15, 30, 45, 60, 90 and 120 minutes respectively. For Si experiments blood glucose was determined only at 15 minutes. Glucose tolerance graphs were generated by blotting mean±standard error of the mean (SEM) of the recorded glucose data per mouse per minute collection time. […]

Take `C=CC[C@@H]1/C=C(\C)C[C@H](C)C[C@H](OC)[C@H]2O[C@@](O)(C(=O)C(=O)N3CCCC[C@H]3C(=O)O[C@H](/C(C)=C/[C@@H]3CC[C@@H](O)[C@H](OC)C3)[C@H](C)[C@@H](O)CC1=O)[C@H](C)C[C@@H]2OC` [tacrolimus]: in experiment [1] (days 4.5 and 6.5 postcoitum), the “uterine LIF protein expression (Western blot)” value is given as “induced LIF protein expression”. The “maturation of uterodomes at implantation sites” value in experiment [1] (pregnancy day 4.5) is reported as “inducing maturation of uterodomes”. For the same compound, the “rates of still births and malformations” value with NOD, NZO and DIO mice (near-term (Gd.16.5) pups) was “reduced the rates of still births and malformations”. Besides, in the experiment with NOD, NZO and DIO mice (treated diabetic and obese mice), the “term pregnancy and live births” value is listed as “restored normal term pregnancy with high rate of live births”. For the same compound, in experiment [2], the glucose tolerance result is given as “restored normal glucose tolerance”.
